This passage reports Ki and IC50 results from US6221871A, “Certain aminomethyl biphenyl, aminomethyl phenyl pyridine and aminomethyl phenyl pyrimidine derivatives; novel dopamine receptor subtype selective ligands” (priority 1999, dated 2001).

Structures are written as SMILES. Structures can show the parent of a compound that is named as a salt. Where two headings read alike, the source gives them in different places. Some results are limits rather than exact numbers.

In experiment [1] the target is T1, human dopamine D4 receptor subtype (Homo sapiens, UniProt P21917).
T1 construct: expressed in transfected cells
T1 sequence (P21917 1-419): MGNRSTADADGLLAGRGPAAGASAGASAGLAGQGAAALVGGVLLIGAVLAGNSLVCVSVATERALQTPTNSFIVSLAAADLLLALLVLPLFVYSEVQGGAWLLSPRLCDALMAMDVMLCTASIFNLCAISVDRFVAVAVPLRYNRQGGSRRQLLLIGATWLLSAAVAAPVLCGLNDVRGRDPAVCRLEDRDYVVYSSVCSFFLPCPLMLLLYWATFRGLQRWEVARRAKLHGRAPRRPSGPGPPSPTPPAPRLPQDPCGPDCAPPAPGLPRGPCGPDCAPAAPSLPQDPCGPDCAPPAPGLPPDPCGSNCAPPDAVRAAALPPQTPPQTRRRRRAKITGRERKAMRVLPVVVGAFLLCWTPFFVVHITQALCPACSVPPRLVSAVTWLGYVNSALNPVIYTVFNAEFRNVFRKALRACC
Put plainly: D4 receptor binding, [3H]YM-09151-2 displacement. Here is the method: Assay for D4 receptor binding activity
Clonal cell lines expressing the human dopamine D4 receptor subtype were harvested in PBS and the cells centrifuged and the pellets stored at -80° C. until used in the binding assay. The pellets were resuspended and the cells lysed at 4° C. in 50 mM Tris pH 7.4 buffer containing 120 mM NaCl, 1 mM EDTA and 5 mM MgCl2. The homogenate is centrifuged at 48000× g for 10 minutes at 4° C. The resulting pellet is resuspended in fresh buffer and centrifuged again. After resuspension of the pellet in fresh buffer a […] aliquot is removed for protein determination. The remaining homogenate is centrifuged as above, the supernatant removed and the pellet stored at 4° C. until needed; at which time it is resuspended to a final concentration of […] with 50 mM Tris buffer (pH 7.4) and 120 mM NaCl just prior to use. Incubations were carried out for 60 minutes at 25° C. in the presence of 0.1 nM [^3 H] YM-09151-2. The incubation was terminated by rapid filtration through Whatman GF/C filters and rinsed with 2×4 ml washes of chiled 50 mM Tris (pH 7.4) and 120 mM NaCl. Non-specific binding was determined with 1 mM spiperone and radioactivity determined by counting in an LKB beta counter. Binding parameters were determined by non-linear least squares regression analysis, from which the inhibition constant Ki could be calculated for each test compound. The binding characteristics of some examples of this patent are shown in Table 2 for the dopamine D4 binding assay.

A further experiment addresses D2 receptor (Rattus norvegicus, UniProt P61169). Kind of experiment: biochemical. The experiment is classed as binding.
Another experiment concerns the target D3 receptor. Kind of experiment: D3 receptor binding, [3H]raclopride displacement. The note with it: 0.5 nM 3H-raclopride; recombinantly produced D3 receptors, BHK 293 cells.
Setting [2] is: 0.1 nM [3H]YM-09151-2, 60 min, 25° C., clonal cell lines expressing human D4 (Table 2), read-out: Ki.
Setting [3] is: 0.5 nM 3H-raclopride, rat striatal homogenates (Table 1), read-out: D2 binding IC50.

Sequence of D2 receptor (P61169 whole entry): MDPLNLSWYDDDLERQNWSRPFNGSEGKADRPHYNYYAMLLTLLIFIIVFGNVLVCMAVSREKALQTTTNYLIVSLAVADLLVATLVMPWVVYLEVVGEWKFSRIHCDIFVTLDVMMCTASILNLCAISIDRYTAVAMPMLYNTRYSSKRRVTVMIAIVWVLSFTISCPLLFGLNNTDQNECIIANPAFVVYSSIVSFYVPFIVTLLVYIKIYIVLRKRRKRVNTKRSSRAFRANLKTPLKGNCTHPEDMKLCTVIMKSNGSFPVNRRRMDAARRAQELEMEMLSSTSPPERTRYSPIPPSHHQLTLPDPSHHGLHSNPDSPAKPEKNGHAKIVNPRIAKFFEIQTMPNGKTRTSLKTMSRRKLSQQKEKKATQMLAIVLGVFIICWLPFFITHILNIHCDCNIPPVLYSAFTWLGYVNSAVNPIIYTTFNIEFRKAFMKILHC
Experimental for D2 receptor: (§1) Assay for D2 and D3 receptor binding activity
(§2) Striatial tissue is dissected from adult male Sprague Dawley rats or BHK 293 cells are harvested containing recombinantly produced D2 or D3 receptors. The sample is homogenized in 100 volumes (w/vol) of 0.05 M Tris HCl buffer at 4° C. and pH 7.4. The sample is then centrifuged at 30,000× g and resuspended and rehomogenized. The sample is then centrifuged as described and the final tissue sample is frozen until use. The tissue is resuspended 1:20 (wt/vol) in 0.05 M Tris HCl buffer containing 100 mM NaCl.
(§3) Incubations are carried out at 48° C. and contain 0.5 ml of tissue sample, 0.5 nM ^3 H-raclopride and the compound of interest in a total incubation of 1.0 ml.
Experimental for D3 receptor: as §1, §2, §3

Turning to `COc1ccc(-c2ccccc2)cc1CN1CCN(c2ncccn2)CC1` [Compound 1, 4phenyl-2-[(4-(2-pyrimidinyl)-piperazinyl)methyl]-anisole dihydrochloride], the inhibition constant Ki in experiment [1] (setting [2]) stood at 32 nM. The IC50 at D2 receptor (setting [3]) stood at 175 nM.
`COc1ccc(CN2CCN(c3ncccn3)CC2)cc1-c1ccccc1` [Compound 2, 2-phenyl-4-[(4-(2-pyrimidinyl)-piperazinyl)methyl]anisole dihydrochloride]: the Ki in experiment [1] (setting [2]) came out at 243 nM.
In experiment [1], `C1=C(c2ccccc2)CCN(Cc2cccc(-c3ccccc3)c2)C1` [Compound 3, 3-[(4-1,2,3,6-tetrahydropyridin-1-yl)methyl]biphenyl hydrochloride] had a Ki of 18 nM. In addition, the IC50 against D2 receptor and at D3 receptor was 12 nM each time.
As for `c1ccc(-c2cccc(CN3CCC(c4ccccc4)CC3)c2)cc1` [Compound 4, 3-[(4phenyl-piperidin-1-yl)methyl]biphenyl hydrochloride], the Ki in experiment [1] (setting [2]) came out at 28 nM. Moreover, the 50% inhibitory concentration (IC50) worked out at 5 nM at D2 receptor (setting [3]) and 61 nM on D3 receptor.
As for `Cc1cc(-c2ccccc2)ccc1CN1CCC(Cc2ccccc2)CC1` [Compound 5, 3-phenyl-6-[(4-benzyl-piperidin-1-yl)methyl]toluenehydrochloride], the Ki in experiment [1] (setting [2]) came out at 286 nM. The IC50 at D3 receptor is 2490 nM.
With `CC(c1cccc(-c2ccccc2)c1)N(C)Cc1ccccc1` (centres unmarked) [Compound 6, N-(1-(3-biphenyl)ethyl-N-methylbenzylamine hydrochloride], the inhibition constant (Ki) in experiment [1] (setting [2]) was above 75 nM. Also, on D3 receptor, the IC50 is 6120 nM.
As to `COc1ccccc1N1CCN(C(C)c2cccc(-c3ccccc3)c2)CC1` (centres unmarked) [Compound 7, 1-(2-methoxyphenyl)-4-(1-(3-biphenyl)ethyl)piperazine dihydrochloride], in experiment [1] (setting [2]), the inhibition constant (Ki) was above 75 nM. Also, the IC50 at D3 receptor was determined as 342 nM.
On to `c1ccc(-c2cc(CN3CCN(c4ncccn4)CC3)cc(-c3ccccc3)c2)cc1` [Compound 8, 1-(2-pyrimidyl)-4-((3,5-diphenylphenyl)methyl)piperazine dihydrochloride], for which the Ki in experiment [1] (setting [2]) was found to be 1050 nM. Further, the IC50 on D2 receptor (setting [3]) came out at 1940 nM.
Consider `c1ccc(CC2CCN(Cc3ccnc(-c4ccccc4)c3)CC2)cc1` [Compound 9, 2-phenyl-4-[(4-benzyl-piperidin-1-yl)methyl]-pyridine dihydrochloride], for which the Ki in experiment [1] (setting [2]) was 56 nM. Moreover, the IC50 on D2 receptor (setting [3]) was 290 nM.
Regarding `c1ccc(CC2CCN(Cc3cccc(-c4ccccc4)n3)CC2)cc1` [Compound 10, 2-Phenyl-6-[(4benzyl-piperidin-1-yl)methyl]-pyridine], in experiment [1] (setting [2]), the Ki is 769 nM. Further, the IC50 on D3 receptor was determined as 1140 nM.
Turning to `c1ccc(CC2CCN(Cc3ccnc(-c4ccccc4)n3)CC2)cc1` [Compound 11, 2-phenyl-4-[(4-benzyl-piperidin-1-yl)methyl]-pyrimidine dihydrochloride], the Ki in experiment [1] (setting [2]) worked out at 600 nM. Moreover, the IC50 on D3 receptor came to 1610 nM.

For orientation: Ki means a measure of affinity in units of concentration, obtained from inhibition or displacement. As a reminder, the IC50 is the concentration at which inhibition is half-maximal.
